In patent US6916933B2, “4-pyridinyl-n-acyl-l-phenylalanines” (Hoffman-La Roche Inc., priority 1999, dated 2005) one finds IC50 data, which are given here for eight compounds.

Where only a bound is given, the exact number is not on record here.

This assay deals with T1, alpha4-beta7 on RPMI 8866 cells binding to MadCAM (Homo sapiens, UniProt P13612+P26010).
T1 construct: endogenous in cells; host or cells: RPMI 8866 cells
T1 sequence (P13612 34-1032): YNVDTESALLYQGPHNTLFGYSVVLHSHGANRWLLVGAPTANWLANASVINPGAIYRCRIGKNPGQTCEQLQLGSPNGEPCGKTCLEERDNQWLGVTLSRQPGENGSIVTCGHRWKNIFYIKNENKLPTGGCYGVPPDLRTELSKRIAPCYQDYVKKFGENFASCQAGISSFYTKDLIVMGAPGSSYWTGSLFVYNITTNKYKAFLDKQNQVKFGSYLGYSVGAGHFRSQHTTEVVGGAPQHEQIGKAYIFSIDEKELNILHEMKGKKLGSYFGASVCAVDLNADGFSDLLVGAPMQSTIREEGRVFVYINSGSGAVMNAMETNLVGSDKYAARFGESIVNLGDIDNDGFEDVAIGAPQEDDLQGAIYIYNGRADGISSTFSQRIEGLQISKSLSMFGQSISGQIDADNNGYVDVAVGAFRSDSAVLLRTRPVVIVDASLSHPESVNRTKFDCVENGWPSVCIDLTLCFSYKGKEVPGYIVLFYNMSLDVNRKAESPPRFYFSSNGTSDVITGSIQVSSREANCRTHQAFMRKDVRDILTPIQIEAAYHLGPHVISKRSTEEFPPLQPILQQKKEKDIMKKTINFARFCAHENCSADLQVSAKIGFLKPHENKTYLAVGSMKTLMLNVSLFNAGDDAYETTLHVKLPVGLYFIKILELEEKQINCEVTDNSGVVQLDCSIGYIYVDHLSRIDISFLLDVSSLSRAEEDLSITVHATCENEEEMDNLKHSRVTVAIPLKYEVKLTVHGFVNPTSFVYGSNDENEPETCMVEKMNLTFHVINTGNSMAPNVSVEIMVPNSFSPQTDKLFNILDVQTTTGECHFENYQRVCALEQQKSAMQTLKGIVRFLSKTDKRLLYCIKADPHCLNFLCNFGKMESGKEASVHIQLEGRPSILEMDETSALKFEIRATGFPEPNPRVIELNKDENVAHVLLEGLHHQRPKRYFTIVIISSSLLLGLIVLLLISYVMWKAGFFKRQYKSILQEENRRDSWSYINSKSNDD
T1 sequence (P26010 20-798): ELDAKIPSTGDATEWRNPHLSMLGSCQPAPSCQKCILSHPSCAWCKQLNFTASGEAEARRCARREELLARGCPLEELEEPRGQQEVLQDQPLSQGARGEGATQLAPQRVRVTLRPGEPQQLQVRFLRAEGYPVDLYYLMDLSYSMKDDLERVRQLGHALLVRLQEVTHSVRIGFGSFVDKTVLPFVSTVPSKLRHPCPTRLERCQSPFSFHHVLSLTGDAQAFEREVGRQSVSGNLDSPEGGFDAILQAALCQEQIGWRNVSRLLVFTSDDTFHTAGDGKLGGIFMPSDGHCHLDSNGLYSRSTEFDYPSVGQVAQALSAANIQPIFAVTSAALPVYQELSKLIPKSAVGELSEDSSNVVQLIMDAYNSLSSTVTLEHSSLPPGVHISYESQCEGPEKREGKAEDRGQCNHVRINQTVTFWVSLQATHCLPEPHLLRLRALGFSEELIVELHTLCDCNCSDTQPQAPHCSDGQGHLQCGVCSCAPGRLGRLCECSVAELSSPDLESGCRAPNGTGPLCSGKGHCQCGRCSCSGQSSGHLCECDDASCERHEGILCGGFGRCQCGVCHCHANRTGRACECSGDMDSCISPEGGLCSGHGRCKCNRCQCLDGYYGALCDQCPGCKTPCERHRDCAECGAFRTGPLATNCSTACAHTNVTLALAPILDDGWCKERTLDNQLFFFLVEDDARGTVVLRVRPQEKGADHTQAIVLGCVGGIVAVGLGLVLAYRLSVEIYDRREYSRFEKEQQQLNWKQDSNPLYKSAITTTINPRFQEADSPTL
Kind of assay: Alpha4-Beta7 Assay (MadCAM/RPMI 8866 cell adhesion). Format: cell-based. The note with it: calcein labeled RPMI 8866 cells, MadCAM coated plates. The procedure:
Alpha4-Beta7 Assay Protocol
Two weeks to one day prior to the assay, Nunc high-binding F96 Maxisorp immuno plates, #442404 or #439454, were coated with 25 ng/well (0.25 μg/ml) MadCAM in a volume of 100 μl/well. The plates were covered with sealer and wrapped in saran wrap followed by incubation in the refrigerator for at least 24 hours. The coating buffer employed was: 10 mM carbonate/bicarbonate buffer made up from: 0.8 g/L sodium carbonate and 1.55 g/L sodium bicarbonate adjusted to pH 9.6 with 1 N HCl.
Assay buffers consisted of the following: • Wash Buffer: 0.05% Tween 20 in PBS • Blocking Buffer: 1% Nonfat Dry Milk in PBS • Labeling Buffer: PBS • Cell Buffer: RPMI 1640 medium (no additives) • Binding Buffer: 1.5 mM CaCl2 • 0.5 mM MnCl2 • 50 mM TRIS-HCl; add NaOH dropwise to pH 7.5 • Bring to volume in H2O • Adjust to pH 7.5 • Dilution Buffer: 4% DMSO in Binding Buffer
Plates were washed 2× with wash buffer and then blocked at room temperature for at least 1 hour with Blocking Buffer. Sealed plates were sometimes blocked overnight in the refrigerator. Plates were then washed with PBS and hand blotted dry. Remaining liquid was aspirated from the wells.
Sufficient RPMI 8866 cells were removed from stock for assay (2×10^6 cells/ml×10 ml/plate×number of plates) and placed in a centrifuge tube. The tubes were filled to volume with PBS and were spun at 200×G for 8 minutes. The buffer was poured off and the cells were resuspended to 10×10^6/ml in PBS and a stock solution of calcein in DMSO (5 mg/mL) was added at 5 μl/ml of cell suspension. The suspension was incubated for 30 minutes at 37° C. in dark. The cells were then washed with PBS. The PBS was poured off and the cells resuspended in cell buffer at a concentration of 2×10^6 cells/mL for plating in the assay.
Stock solution of test compounds at 25× first dilution desired in 100% DMSO were prepared. First dilutions for the standard, as well as test compounds, were 1:25 into straight Binding Buffer, while the remaining serial dilutions were into Dilution Buffer (Binding Buffer/4% DMSO). Stock concentrations and dilutions of compounds for screening were determined by anticipated activity.
For the assay, 129 μl Binding Buffer was plated into first row of wells and 100 μl Dilution Buffer was plated into remaining wells. A 5.4 μl aliquot of each compound was pipetted into appropriate, labeled wells, in triplicate. The compounds were next diluted down the plate (34 μl+100 μl=>4-fold dilution). For controls, 100 μl of Dilution Buffer+100 μl Cell Buffer were plated into the nonspecific background wells (no cells, no compound) and 100 μl Dilution Buffer+100 μl cells were plated into the total binding wells (no compound=100% binding). Labeled cells at 2×10^6 cells/ml, 100μl/well (=2×10^5 cells/well) were added to each well containing compound. The plates were sealed and incubated in the dark for 45 minutes at room temperature. Following incubation, unbound cells were removed by adding 150 μl PBS/well. The plates were inverted, blotted onto paper towels and washed by gently adding 200 μl PBS to wells and blotting again. Remaining buffer was carefully aspirated from the wells. A final 100 μl PBS was added to each well.
The plates were then read for fluorescence intensity on a Cytofluor 2300 (Millipore) fluorecence measurement system (excitation=485 nm, emission=530 nm). IC50s of each compound were determined by linear regression analysis.
Turning to `Cc1cccc(Cl)c1C(=O)N[C@@H](Cc1ccc(-c2cccn(C)c2=O)cc1)C(=O)O` [Example 30, N-[(2-chloro-6-methylphenyl)carbonyl]-4-(1-methyl-2-oxo-3-pyridinyl)-L-phenylalanine], the IC50 is < 10 µM. To `Cc1ccn(C)c(=O)c1-c1ccc(C[C@H](NC(=O)c2c(Cl)cccc2Cl)C(=O)O)cc1` [Example 31, N-[(2,6-dichlorophenyl)carbonyl]-4-(1,4-dimethyl-2-oxo-3-pyridinyl)-L-phenylalanine] belongs < 10 µM. To `Cc1cccc(Cl)c1C(=O)N[C@@H](Cc1ccc(-c2c(C)ccn(C)c2=O)cc1)C(=O)O` [Example 32, N-[(2-chloro-6-methylphenyl)carbonyl]-4-(1,4-dimethyl-2-oxo-3-pyridinyl)-L-phenylalanine] belongs < 10 µM. To `Cc1cc(C(F)(F)F)c(-c2ccc(C[C@H](NC(=O)c3c(Cl)cccc3Cl)C(=O)O)cc2)c(=O)n1C` [Example 33, N-[(2,6-dichlorophenyl)carbonyl]-4-[1,6-dimethyl-4-(trifluoromethyl)-2-oxo-3-pyridinyl]-L-phenylalanine] belongs < 0.1 µM. For `CCc1cccc(C)c1C(=O)N[C@@H](Cc1ccc(-c2c(C(F)(F)F)cc(C)n(C)c2=O)cc1)C(=O)O` [Example 34, N-[(2-ethyl-6-methylphenyl)carbonyl]-4-[1,6-dimethyl-4-(trifluoromethyl)-2-oxo-3-pyridinyl]-L-phenylalanine], the IC50 is < 10 µM. To `Cc1cccc(C(C)C)c1C(=O)N[C@@H](Cc1ccc(-c2c(C(F)(F)F)cc(C)n(C)c2=O)cc1)C(=O)O` [Example 35, N-[(2-(1-methylethyl)-6-methylphenyl)carbonyl]-4-[1,6-dimethyl-4-(trifluoromethyl)-2-oxo-3-pyridinyl]-L-phenylalanine] belongs < 5 µM; to `Cc1cccc(Cl)c1C(=O)N[C@@H](Cc1ccc(-c2c(C(F)(F)F)cc(C)n(C)c2=O)cc1)C(=O)O` [Example 36, N-[(2-chloro-6-methylphenyl)carbonyl]-4-[1,6-dimethyl-4-(trifluoromethyl)-2-oxo-3-pyridinyl]-L-phenylalanine], < 10 µM; to `COCCC1(C(=O)N[C@@H](Cc2ccc(-c3c(C(F)(F)F)cc(C)n(C)c3=O)cc2)C(=O)O)CCCC1` [Example 37, N-[[1-(2-methoxyethyl)cyclopentyl]carbonyl]-4-[1,6-dimethyl-4-(trifluoromethyl)-2-oxo-3-pyridinyl]-L-phenylalanine], < 10 µM.
